# What was measured:
# [1] = target: T1, human glucocorticoid receptor (GR) complex (Homo sapiens, UniProt P04150); experiment: Glucocorticoid Receptor Competitive Binding Assay (fluorescence polarization, TAMRA-labeled dexamethasone probe); conditions: qualitative statement; competition with TAMRA-labeled dexamethasone
# T1 construct: made in house; host or cells: insect expression system (baculovirus lysate)
# T1 sequence (P04150 1-777): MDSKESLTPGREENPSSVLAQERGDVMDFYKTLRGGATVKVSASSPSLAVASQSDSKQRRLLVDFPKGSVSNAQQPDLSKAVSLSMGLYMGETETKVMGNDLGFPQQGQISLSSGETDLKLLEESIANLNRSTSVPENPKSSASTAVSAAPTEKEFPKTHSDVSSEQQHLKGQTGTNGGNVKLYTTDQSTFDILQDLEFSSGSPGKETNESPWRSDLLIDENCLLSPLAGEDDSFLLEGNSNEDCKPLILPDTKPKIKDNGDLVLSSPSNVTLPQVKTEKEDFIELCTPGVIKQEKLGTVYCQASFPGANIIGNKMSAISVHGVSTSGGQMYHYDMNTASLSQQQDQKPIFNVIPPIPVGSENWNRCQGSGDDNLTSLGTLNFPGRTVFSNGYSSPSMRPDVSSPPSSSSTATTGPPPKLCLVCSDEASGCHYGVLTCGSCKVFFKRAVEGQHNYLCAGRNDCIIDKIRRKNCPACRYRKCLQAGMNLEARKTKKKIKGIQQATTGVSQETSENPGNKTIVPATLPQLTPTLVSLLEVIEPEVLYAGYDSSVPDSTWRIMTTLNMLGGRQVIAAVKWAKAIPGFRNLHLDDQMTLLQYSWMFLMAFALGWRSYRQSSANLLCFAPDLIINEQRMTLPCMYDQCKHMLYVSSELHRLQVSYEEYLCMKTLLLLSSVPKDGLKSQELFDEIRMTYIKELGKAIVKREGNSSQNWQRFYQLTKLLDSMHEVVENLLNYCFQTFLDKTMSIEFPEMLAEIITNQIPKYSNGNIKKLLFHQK
# Method: Compounds of the invention were evaluated for binding to the steroid receptor by a fluorescence polarization competitive binding assay.
# A. Glucocorticoid Receptor Competitive Binding Assay
# Step 1. Characterization of the Fluorescent Probe
# The wavelengths for maximum excitation and emission of the fluorescent probe should first be measured. An example of such a probe is rhodamine (TAMRA)-labeled dexamethasone.
# The affinity of the probe for the steroid receptor was then determined in a titration experiment. The fluorescence polarization value of the probe in assay buffer was measured on an SLM-8100 fluorometer using the excitation and emission maximum values described above. Aliquots of expression vector lysate were added and fluorescence polarization was measured after each addition until no further change in polarization value was observed. Non-linear least squares regression analysis was used to calculate the dissociation constant of the probe from the polarization values obtained for lysate binding to the probe.
# Step 2. Screening for Inhibitors of Probe Binding
# This assay uses fluorescence polarization (FP) to quantitate the ability of test compounds to compete with tetramethyl rhodamine (TAMRA)-labeled dexamethasone for binding to a human glucocorticoid receptor (GR) complex prepared from an insect expression system. The assay buffer was: 10 mM TES, 50 mM KCl, 20 mM Na2MoO4. 2H2O, 1.5 mM EDTA, 0.04% w/v CHAPS, 10% v/v glycerol, 1 mM dithiothreitol, pH 7.4. Test compounds were dissolved to 1 mM in neat DMSO and then further diluted to 10× assay concentration in assay buffer supplemented with 10% v/v DMSO. Test compounds were serially diluted at 10× assay concentrations in 10% DMSO-containing buffer in 96-well polypropylene plates. […] Positive controls were reaction mixtures containing no test compound; negative controls (blanks) were reaction mixtures containing 0.7 μM to 2 μM dexamethasone. […] IC50 values were determined by iterative non-linear curve fitting of the FP signal data to a 4-parameter logistic equation.
# glucocorticoid receptor = experiment: Glucocorticoid Receptor Cell Assays (agonist activity in one or more of the above assays); type: cell-based; conditions: qualitative statement; assay not specified
# Method: B. Glucocorticoid Receptor Cell Assays
# 1. Induction of Aromatase in Fibroblasts (Cell Assay for Transactivation)
# Dexamethasone, a synthetic ligand to the glucocorticoid receptor (GR), induces expression of aromatase in human foreskin fibroblast cells. The activity of aromatase is measured by the conversion of testosterone to estradiol in culture media.
# On the day of the experiment, the media in the wells is replaced with fresh media. Cells are treated with test compounds to final concentrations of 10^−5 M to 10^−8 M, and testosterone to a final concentration of 300 ng/mL. Each well has a total volume of 100 μL. Samples are made in duplicates. Control wells include: (a) wells that receive testosterone only, and (b) wells that receive testosterone plus 2 μM of dexamethasone to provide maximum induction of aromatase. Plates are incubated at 37° C. overnight (15 to 18 hours), and supernatants are harvested at the end of incubation. […] The amount of estradiol is inversely proportional to the ELISA signals in each well. The extent of aromatase induction by test compounds is expressed as a relative percentage to dexamethasone. EC50 values of test compounds are derived by non-linear curve fitting.
# 2. Inhibition of IL-6 Production in Fibroblasts (Cell Assay for Transrepression)
# Human foreskin fibroblast cells produce IL-6 in response to stimulation by pro-inflammatory cytokine IL-1.
# On the next day, media in the wells is replaced with fresh media. Cells are treated with IL-1 (rhIL-1α, R&D Systems Cat. No. 200-LA) to a final concentration of 1 ng/mL, and with test compounds to final concentrations of 10^−5 M to 10^−8 M, in a total volume of 200 μL per well. Samples are done in duplicates. […] Positive control wells receive IL-1 only and represent maximum (or 100%) amount of IL-6 production. Plates are incubated at 37° C. overnight (15 to 18 hours), and supernatants are harvested at the end of incubation. IL-6 levels in the supernatants are determined by the ELISA kits for IL-6 (MedSystems Diagnostics GmbH, Vienna, Austria, Cat. No. BMS213TEN) according to manufacture's instructions. The extent of inhibition of IL-6 by test compounds is expressed in percentage relative to positive controls. IC50 values of test compounds are derived by non-linear curve fitting.
# Evaluation of agonist or antagonist activity of compounds binding to the glucocorticoid receptor may be determined by any of the assays.
# 3. Modulation of Tyrosine Aminotransferase (TAT) Induction in Rat Hepatoma Cells
# Testing of compounds for agonist or antagonist activity in induction of tyrosine aminotransferase (TAT) in rat hepatoma cells.
# H4-II-E-C3 cells were incubated overnight in 96 well plates (20,000 cells/100 μL/well) in MEM medium containing 10% heat inactivated FBS and 1% nonessential amino acids. On the next day, cells were stimulated with the indicated concentrations of dexamethasone or test compound (dissolved in DMSO, final DMSO concentration 0.2%) for 18 hours. Control cells were treated with 0.2% DMSO. After 18 hours, the cells were lysed in a buffer containing 0.1% Triton X-100 and the TAT activity was measured in a photometric assay using tyrosine and alpha-ketoglutarate as substrates.
# For measuring antagonist activity, the hepatoma cells were pre-stimulated by addition of dexamethasone (concentration ranges from 3×10^−9 M to 3×10^−8 M) shortly before the test compound was applied to the cells.
# 4. Modulation of MMTV-Luc Induction in HeLa Cells
# Testing of compounds for agonist or antagonist activity in stimulation of MMTV-(mouse mammary tumor virus) promoter in HeLa cells.
# Cells were cultured overnight in DMEM medium without phenol red, supplemented with 3% CCS (charcoal treated calf serum) and then transferred to 96 well plates (15,000 cells/100 μL/well).
Structure (SMILES),activity in the GR binding assay [1],activity as agonists of the glucocorticoid receptor function in one or more of the above assays (glucocorticoid receptor)
"COc1cccc(C(C)(C)CC(O)(Cc2ccnc3ccccc23)C(F)(F)F)c1 (stereo not drawn) [1,1,1-Trifluoro-4-(3-methoxyphenyl)-4-methyl-2-quinolin-4-ylmethylpentan-2-ol]",potent activity,potent agonists
CC(C)(CC(O)(Cc1cc2cc(C#N)ccc2[nH]1)C(F)(F)F)c1cccc2c1OCC2 (stereo not drawn),,potent agonists
COc1ccc(Br)cc1C(C)(C)CC(O)(Cc1cc2c(C)cc(C#N)cc2[nH]1)C(F)(F)F (stereo not drawn),,potent agonists
"Cc1ccc(F)cc1C(C)(C)CC(O)(Cc1cc2ccncc2[nH]1)C(F)(F)F (stereo not drawn) [1,1,1-Trifluoro-4-(5-fluoro-2-methylphenyl)-4-methyl-2-(1H-pyrrolo[2,3-c]pyridin-2-ylmethyl)pentan-2-ol]",,potent agonists
COc1ccc(F)cc1C(C)(C)CC(O)(Cc1cc2ccccc2[nH]1)C1CC1 (stereo not drawn) [2-Cyclopropyl-4-(5-fluoro-2-methoxyphenyl)-1-(1H-indol-2-yl)-4-methylpentan-2-ol],,agonists
"CC(C)(CC(O)(Cc1[nH]c2ccccc2c1C#N)C(F)(F)F)c1cccc2c1OCC2 (stereo not drawn) [2-[4-(2,3-Dihydrobenzofuran-7-yl)-2-hydroxy-4-methyl-2-trifluoromethylpentyl]-1H-indole-3-carbonitrile]",,potent agonists
"CC(C)(CC(O)(Cc1cc2ccccc2[nH]1)C(F)(F)F)c1ccccc1 (stereo not drawn) [1,1,1-Trifluoro-2-(1H-indol-2-ylmethyl)-4-methyl-4-phenylpentan-2-ol]",potent activity,
"CC(C)(CC(O)(Cc1cc2ccccc2[nH]1)C(F)(F)F)c1ccc2ccccc2c1 (stereo not drawn) [1,1,1-Trifluoro-2-(1H-indol-2-ylmethyl)-4-methyl-4-naphthalen-2-ylpentan-2-ol]",potent activity,
COc1ccc(F)cc1C(C)(C)CC(O)(Cn1cc(C#N)c2ccccc21)C(F)(F)F (stereo not drawn) [1-[4-(5-Fluoro-2-methoxyphenyl)-2-hydroxy-4-methyl-2-trifluoromethylpentyl]-1H-indole-3-carbonitrile],potent activity,
CC(C)(CC(O)(Cn1cc(C#N)c2ccccc21)C(F)(F)F)c1cccc2c1OCC2 (stereo not drawn),,potent agonists
COc1ccc(F)cc1C(C)(C)CC(O)(CF)Cc1cc2ccccc2[nH]1 (stereo not drawn) [4-(5-Fluoro-2-methoxyphenyl)-2-fluoromethyl-1-(1H-indol-2-yl)-4-methylpentan-2-ol],potent activity,
"CC(C)(CC(O)(Cc1ccnc2ccccc12)C(F)(F)F)c1ccc2ccccc2c1 (stereo not drawn) [1,1,1-Trifluoro-4-methyl-4-naphthalen-2-yl-2-quinolin-4-ylmethylpentan-2-ol]",potent activity,
"COc1cccc(C(C)(C)CC(O)(Cc2cc3cc(C(F)(F)F)ccc3[nH]2)C(F)(F)F)c1 (stereo not drawn) [1,1,1-Trifluoro-4-(3-methoxyphenyl)-4-methyl-2-(5-trifluoromethyl-1H-indol-2-ylmethyl)pentan-2-ol]",potent activity,
"CC(C)(CC(O)(Cc1cc2ccccc2[nH]1)C(F)(F)F)c1cc(C#N)cc2c1OCC2 (stereo not drawn) [4-(2,3-dihydro-5-cyanobenzofuran-7-yl)-1,1,1-trifluoro-2-(1H-indol-2-ylmethyl)-4-methylpentan-2-ol]",potent activity,
"CC(C)(CC(O)(Cc1ccnc2ccccc12)C(F)(F)F)c1cc(Br)cc2c1OCCC2 (stereo not drawn) [4-(6-Bromochroman-8-yl)-1,1,1-trifluoro-4-methyl-2-quinolin-4-ylmethylpentan-2-ol]",potent activity,
"COc1ccc(F)cc1C(C)(C)CC(O)(Cc1cc(Cl)nc2ccccc12)C(F)(F)F (stereo not drawn) [1,1,1-Trifluoro-4-(5-fluoro-2-methoxyphenyl)-4-methyl-2-(2-chloroquinolin-4-ylmethyl)pentan-2-ol]",potent activity,
CC(C)(CC(O)(Cc1[nH]c2ccccc2c1C#N)C(F)(F)F)c1cccc(F)c1 (stereo not drawn) [2-[4-(3-Fluorophenyl)-2-hydroxy-4-methyl-2-trifluoromethylpentyl]-1H-indole-3-carbonitrile],potent activity,
"CC(C)(CC(O)(Cc1cc2cccc(F)c2[nH]1)C(F)(F)F)c1cc(F)ccc1O (stereo not drawn) [4-Fluoro-2-[4,4,4-trifluoro-3-(7-fluoro-1H-indol-2-ylmethyl)-3-hydroxy-1,1-dimethylbutyl]phenol]",potent activity,
"CC(C)(CC(O)(Cc1cc2cnccc2[nH]1)C(F)(F)F)c1cccc(F)c1 (stereo not drawn) [1,1,1-Trifluoro-4-(3-fluorophenyl)-4-methyl-2-(1H-pyrrolo[3,2-c]pyridin-2-ylmethyl)pentan-2-ol]",potent activity,
"Cc1cccc(C)c1C(C)(C)CC(O)(Cc1ccnc2ccccc12)C(F)(F)F (stereo not drawn) [4-(2,6-Dimethylphenyl)-1,1,1-trifluoro-4-methyl-2-quinolin-4-ylmethylpentan-2-ol]",potent activity,

# Source: patent US7553966B2, “Glucocorticoid mimetics, methods of making them, pharmaceutical compositions, and uses thereof” (Boehringer Ingelheim Pharmaceuticals, Inc., priority 2002, dated 2009)
